Columns and labels:
ryegrass, Italian = test: Test C pre-/postemergence herbicide test; assay type: in vivo, Lolium multiflorum
Method in brief: (§1)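 Two application timings ran in parallel with identically formulated test chemicals (non-phytotoxic solvent, surfactant included): spray on seeded loam–sand soil, and spray on emerged plants 2 to 18 cm high. Evaluation at 13 to 15 days compared each species with controls, rated from 0 up to 100.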

nutsedge, yellow = test: Test C pre-/postemergence herbicide test; assay type: in vivo, Cyperus esculentus
Method in brief: as §1

corn [1] = test: Test C pre-/postemergence herbicide test; assay type: in vivo, Zea mays
Method in brief: as §1

corn [2] = test: Test A pre-/postemergence herbicide test; assay type: in vivo, Zea mays; conditions: Postemergence
Method in brief: (§2)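 Directed soil spray to seeded pots (preemergence) or spray onto one- to two-leaf seedlings 2–10 cm tall (postemergence); loam/sand substrate throughout. Evaluated visually after about 10 days against untreated plants, 0 = no effect, 100 = complete control.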

soybean = test: Test C pre-/postemergence herbicide test; assay type: in vivo, Glycine max
Method in brief: as §1

barnyardgrass [3] = test: Test A pre-/postemergence herbicide test; assay type: in vivo, Echinochloa crus-galli
Method in brief: as §2

giant foxtail = test: Test A pre-/postemergence herbicide test; assay type: in vivo, Setaria faberii
Method in brief: as §2

lambsquarters = test: Test C pre-/postemergence herbicide test; assay type: in vivo, Chenopodium album
Method in brief: as §1

ducksalad = test: Test B flooded paddy test; assay type: in vivo, Heteranthera limosa; conditions: 500 g ai/ha, Flood; scale of 0 to 100 where 0 is no effect and 100 is complete control
Method in brief: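 Paddy-water application at a 3 cm flood, young plants having two leaves. Water level maintained; greenhouse, 13–15 days; visual 0–100 control rating.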

waterhemp = test: Test C pre-/postemergence herbicide test; assay type: in vivo, Amaranthus rudis
Method in brief: as §1

barnyardgrass [4] = test: Test C pre-/postemergence herbicide test; assay type: in vivo, Echinochloa crus-galli
Method in brief: as §1

[5] = Postemergence, 31 g ai/ha, scale 0 to 100 (0 no effect, 100 complete control)
[6] = Postemergence, 62 g ai/ha, scale 0 (no effect) to 100 (complete control)
[7] = Postemergence, 125 g ai/ha, scale 0 to 100 (0 no effect, 100 complete control)
[8] = Postemergence, 250 g ai/ha, scale 0 to 100 (0 no effect, 100 complete control)
[9] = Preemergence, 62 g ai/ha, scale 0 to 100 (0 no effect, 100 complete control)
[10] = Preemergence, 125 g ai/ha, scale 0 to 100
[11] = Preemergence, 31 g ai/ha, scale 0 to 100, 0 is no effect and 100 is complete control
[12] = 125 g ai/ha, visual rating on 0 to 100 scale (0 no effect, 100 complete control), approx. 10 days
[13] = 500 g ai/ha, 0 to 100 scale (0 no effect, 100 complete control)
[14] = Postemergence, 125 g ai/ha, visual rating on 0 to 100 scale (0 no effect, 100 complete control), approx. 10 days
[15] = Postemergence, 500 g ai/ha, 0 to 100 scale (0 no effect, 100 complete control)
[16] = Preemergence, 125 g ai/ha, 0 to 100 scale where 0 is no effect and 100 is complete control
[17] = Preemergence, 500 g ai/ha, visual rating on 0 to 100 scale (0 no effect, 100 complete control)
[18] = Preemergence, 125 g ai/ha, scale 0 to 100 (0 no effect, 100 complete control)

O=C1NCC(c2cccc(OC(F)F)c2)C1C(=O)Nc1cccc(F)c1F (centres unmarked) [Compound 324]
Plant response rating, Ryegrass, Italian (ryegrass, Italian; [5]): 0 | Plant response rating, Ryegrass, Italian (ryegrass, Italian; [6]): 0 | Plant response rating, Ryegrass, Italian (ryegrass, Italian; [7]): 0 | Plant response rating, Ryegrass, Italian (ryegrass, Italian; [8]): 0 | Ryegrass, Italian plant response rating (ryegrass, Italian; [9]): 10 | Plant response rating, Ryegrass, Italian (ryegrass, Italian; [10]): 35 | Plant response rating, Nutsedge, Yellow (nutsedge, yellow; [5]): 0 | Plant response rating, Nutsedge, Yellow (nutsedge, yellow; [6]): 0 | Plant response rating, Nutsedge, Yellow (nutsedge, yellow; [7]): 0 | Plant response rating, Nutsedge, Yellow (nutsedge, yellow; [8]): 0 | Nutsedge, Yellow plant response rating (nutsedge, yellow; [11]): 0 | Nutsedge, Yellow plant response rating (nutsedge, yellow; [9]): 0 | Plant response rating, Nutsedge, Yellow (nutsedge, yellow; [10]): 0 | Plant response rating (scale of 0 to 100), Nutsedge, Yellow (nutsedge, yellow; Preemergence, 250 g ai/ha): 35 | Plant response rating, Corn (corn [1]; [5]): 0 | Plant response rating, Corn (corn [1]; [6]): 0 | Plant response rating, Corn (corn [1]; [7]): 55 | Plant response rating, Corn (corn [1]; [8]): 0 | Corn plant response rating (corn [1]; [11]): 25 | Corn plant response rating (corn [1]; [9]): 70 | Plant response rating, Corn (corn [1]; [10]): 75 | Plant response rating (scale of 0 to 100), Corn (corn [1]; Preemergence, 250 g ai/ha): 85 | Plant response rating, Corn (corn [2]; [12]): 50 | Plant response rating, Corn (corn [2]; [13]): 90 | Plant response rating, Soybean (soybean; [5]): 0 | Plant response rating, Soybean (soybean; [6]): 5 | Plant response rating, Soybean (soybean; [7]): 0 | Plant response rating, Soybean (soybean; [8]): 0 | Soybean plant response rating (soybean; [9]): 0 | Plant response rating, Soybean (soybean; [10]): 0 | Plant response rating, Barnyardgrass (barnyardgrass [3]; [14]): 90 | Plant response rating, Barnyardgrass (barnyardgrass [3]; [15]): 90 | Plant response rating, Barnyardgrass (barnyardgrass [3]; [16]): 90 | Barnyardgrass plant response rating (barnyardgrass [3]; [17]): 90 | Plant response rating, Foxtail, Giant (giant foxtail; [14]): 90 | Plant response rating, Foxtail, Giant (giant foxtail; [15]): 90 | Plant response rating, Foxtail, Giant (giant foxtail; [16]): 90 | Foxtail, Giant plant response rating (giant foxtail; [17]): 90 | Plant response rating, Lambsquarters (lambsquarters; [5]): 0 | Plant response rating, Lambsquarters (lambsquarters; [6]): 55 | Plant response rating, Lambsquarters (lambsquarters; [7]): 70 | Plant response rating, Lambsquarters (lambsquarters; [8]): 65 | Lambsquarters plant response rating (lambsquarters; [11]): 50 | Lambsquarters plant response rating (lambsquarters; [9]): 70 | Plant response rating, Lambsquarters (lambsquarters; [10]): 80 | Plant response rating (scale of 0 to 100), Lambsquarters (lambsquarters; Preemergence, 250 g ai/ha): 85 | Plant response rating, Ducksalad (ducksalad): 100 | Plant response rating, Waterhemp (waterhemp; [5]): 0 | Plant response rating, Waterhemp (waterhemp; [6]): 10 | Plant response rating, Waterhemp (waterhemp; [7]): 20 | Plant response rating, Waterhemp (waterhemp; [8]): 40 | Waterhemp plant response rating (waterhemp; [9]): 70 | Plant response rating, Waterhemp (waterhemp; [10]): 80 | Plant response rating, Barnyardgrass (barnyardgrass [4]; [5]): 0 | Plant response rating, Barnyardgrass (barnyardgrass [4]; [6]): 35 | Plant response rating, Barnyardgrass (barnyardgrass [4]; [7]): 55 | Plant response rating, Barnyardgrass (barnyardgrass [4]; [8]): 65 | Barnyardgrass plant response rating (barnyardgrass [4]; [11]): 90 | Barnyardgrass plant response rating (barnyardgrass [4]; [9]): 95 | Plant response rating, Barnyardgrass (barnyardgrass [4]; [18]): 95 | Plant response rating (scale of 0 to 100; 0 is no effect, 100 is complete control), Barnyardgrass (barnyardgrass [4]; Preemergence, 250 g ai/ha): 98

O=C1NCC(c2cccc(OC(F)F)c2)C1C(=O)Nc1ccc(F)c(F)c1F (centres unmarked) [Compound 325]
Plant response rating, Ryegrass, Italian (ryegrass, Italian; [5]): 0 | Plant response rating, Ryegrass, Italian (ryegrass, Italian; [6]): 0 | Plant response rating, Ryegrass, Italian (ryegrass, Italian; [7]): 0 | Plant response rating, Ryegrass, Italian (ryegrass, Italian; [8]): 30 | Ryegrass, Italian plant response rating (ryegrass, Italian; [9]): 40 | Plant response rating, Ryegrass, Italian (ryegrass, Italian; [10]): 50 | Plant response rating, Nutsedge, Yellow (nutsedge, yellow; [5]): 0 | Plant response rating, Nutsedge, Yellow (nutsedge, yellow; [6]): 0 | Plant response rating, Nutsedge, Yellow (nutsedge, yellow; [7]): 0 | Plant response rating, Nutsedge, Yellow (nutsedge, yellow; [8]): 0 | Nutsedge, Yellow plant response rating (nutsedge, yellow; [11]): 0 | Nutsedge, Yellow plant response rating (nutsedge, yellow; [9]): 0 | Plant response rating, Nutsedge, Yellow (nutsedge, yellow; [10]): 0 | Plant response rating (scale of 0 to 100), Nutsedge, Yellow (nutsedge, yellow; Preemergence, 250 g ai/ha): 0 | Plant response rating, Corn (corn [1]; [5]): 0 | Plant response rating, Corn (corn [1]; [6]): 0 | Plant response rating, Corn (corn [1]; [7]): 10 | Plant response rating, Corn (corn [1]; [8]): 35 | Corn plant response rating (corn [1]; [11]): 10 | Corn plant response rating (corn [1]; [9]): 60 | Plant response rating, Corn (corn [1]; [10]): 70 | Plant response rating (scale of 0 to 100), Corn (corn [1]; Preemergence, 250 g ai/ha): 85 | Plant response rating, Corn (corn [2]; [12]): 80 | Plant response rating, Corn (corn [2]; [13]): 80 | Plant response rating, Soybean (soybean; [5]): 0 | Plant response rating, Soybean (soybean; [6]): 0 | Plant response rating, Soybean (soybean; [7]): 0 | Plant response rating, Soybean (soybean; [8]): 0 | Soybean plant response rating (soybean; [9]): 0 | Plant response rating, Soybean (soybean; [10]): 0 | Plant response rating, Barnyardgrass (barnyardgrass [3]; [14]): 90 | Plant response rating, Barnyardgrass (barnyardgrass [3]; [15]): 90 | Plant response rating, Barnyardgrass (barnyardgrass [3]; [16]): 90 | Barnyardgrass plant response rating (barnyardgrass [3]; [17]): 90 | Plant response rating, Foxtail, Giant (giant foxtail; [14]): 90 | Plant response rating, Foxtail, Giant (giant foxtail; [15]): 90 | Plant response rating, Foxtail, Giant (giant foxtail; [16]): 90 | Foxtail, Giant plant response rating (giant foxtail; [17]): 90 | Plant response rating, Lambsquarters (lambsquarters; [5]): 20 | Plant response rating, Lambsquarters (lambsquarters; [6]): 45 | Plant response rating, Lambsquarters (lambsquarters; [7]): 70 | Plant response rating, Lambsquarters (lambsquarters; [8]): 65 | Lambsquarters plant response rating (lambsquarters; [11]): 45 | Lambsquarters plant response rating (lambsquarters; [9]): 70 | Plant response rating, Lambsquarters (lambsquarters; [10]): 80 | Plant response rating (scale of 0 to 100), Lambsquarters (lambsquarters; Preemergence, 250 g ai/ha): 80 | Plant response rating, Ducksalad (ducksalad): 100 | Plant response rating, Waterhemp (waterhemp; [5]): 0 | Plant response rating, Waterhemp (waterhemp; [6]): 0 | Plant response rating, Waterhemp (waterhemp; [7]): 25 | Plant response rating, Waterhemp (waterhemp; [8]): 35 | Waterhemp plant response rating (waterhemp; [9]): 75 | Plant response rating, Waterhemp (waterhemp; [10]): 80 | Plant response rating, Barnyardgrass (barnyardgrass [4]; [5]): 10 | Plant response rating, Barnyardgrass (barnyardgrass [4]; [6]): 25 | Plant response rating, Barnyardgrass (barnyardgrass [4]; [7]): 70 | Plant response rating, Barnyardgrass (barnyardgrass [4]; [8]): 80 | Barnyardgrass plant response rating (barnyardgrass [4]; [11]): 85 | Barnyardgrass plant response rating (barnyardgrass [4]; [9]): 90 | Plant response rating, Barnyardgrass (barnyardgrass [4]; [18]): 95 | Plant response rating (scale of 0 to 100; 0 is no effect, 100 is complete control), Barnyardgrass (barnyardgrass [4]; Preemergence, 250 g ai/ha): 95

From patent US10294202B2, “Pyrrolidinones as herbicides” (FMC Corporation, priority 2013, dated 2019)
